Measurements as given in publication PMC8241751, “Influence of the Dabcyl group on the cellular uptake of cationic peptides: short oligoarginines as efficient cell-penetrating peptides” (Amino Acids, 2021).
Where a SMILES comes first, the peptide text is derived from it. The star is where a group is joined. 5FAM = O=C1OC2(c3ccc(O)cc3Oc3cc(O)ccc32)c2ccc(C(=O)*)cc21; X1 = CN(C)c1ccc(/N=N/c2ccc(C(=O)*)cc2)cc1

Assays:
CHO-K1 cells [1] = experiment: Absolute quantification of total internalised peptide by fluorometry; details: for Total (37 °C–4 °C) (pmoles) Endocyt. / 4 °C/37 °C (Fluoro): CHO-K1, 60 min; for Total (37 °C–4 °C) (pmoles) Endocyt.: difference of fluorometry values at 37 °C and 4 °C; for 4 °C/37 °C (Fluoro): internalisation ratio by fluorometry; for Total 4 °C (pmoles) Transloc. / Total 37 °C (pmoles) Endocyt. + Transloc.: one million CHO-K1 cells, DMEM-F12, 60 min, cell lysis, fluorometry 525 nm vs calibration curve, mean values; for Total 4 °C (pmoles) Transloc.: pronase wash; for Total 37 °C (pmoles) Endocyt. + Transloc.: trypsin wash
Method: We used the quantification method described earlier (Illien et al. [2016]). […] After incubation with peptides and washing the cells with HBSS, 500 μL 0.05% trypsin/EDTA 0.05% (37 °C) or 500 µL pronase 0.05% in 100 mM Tris pH 7.4 (4 °C) was added for 5 min to hydrolyze the remaining extracellular peptide, the membrane-bound peptide and to detach cells. After addition of 100 µL enzyme inhibitors (complete mini at 4 °C (Roche) or trypsin inhibitor (soybean inhibitor 5 mg/mL) at 37 °C mixed with 100 μL bovine serum albumin (1 mg/mL), cells were transferred into a microtube, centrifuged, washed with 1 mL 50 mM Tris buffer pH 7.4, 0.1% BSA, and lysed in 200 μL 50 mM Tris pH 7.4, 1 M NaCl, 1% Nonident P40. The samples were then sonicated for 15 min (to homogenise samples) and centrifugated for 10 min at 16.000 g. Fluorescence intensity in the supernatants was monitored with a MOS 200 M fluorimeter (Biologic SAS) and the maximal intensity was detected around λ = 525 nm. The maximal intensity was retained for the calibration curve and for quantification of samples. The amount of internalised peptides was calculated by comparing the fluorescence intensity of the sample with the calibration curve. For the calibration curve, we prepared a range of peptide amounts (from 2 to 500 pmol) in the lysis buffer (50 mM Tris pH 7.4, 1 M NaCl, 1% Nonidet P40) in the presence of one million suspended cells. The samples were sonicated 15 min and centrifuged at 16.000 g for 10 min. Fluorescence intensity in the supernatants was monitored with a MOS 200 M fluorimeter (Biologic SAS, France) and the maximal intensity was detected around λ = 525 nm. The fluorescence signal of peptides only was obtained by subtracting the fluorescence intensity of cell lysates (autofluorescence) from the fluorescence intensity of the sample.

CHO-K1 cells [2] = experiment: In vitro cytotoxicity assay (CCK-8); assay type: cell-based, Chinese Hamster; details: different concentrations (0-20 µM), 1 h, 37 °C
Method: Cytotoxicity was determined with the Cell Counting Kit 8 (CCK-8) from Dojindo Molecular Technologies using CHO-K1 cells. This colorimetric assay allows to measure the viability of cells. 96-well plates were inoculated with 100 μL/well of a suspension of cells (2 × 10^4 cells/well). […] After washing, the cells were incubated with 100 μL of 10% CCK-8 in DMEM for 3 h and the absorbance was measured at λ= 450 nm with a microplate reader (Polarstar Optima). Controls corresponded to untreated cells with DMEM (negative control, 100% viability) and cells treated with 0.1% of Triton X-100 (positive control, 0% viability).

SMILES: CN(C)c1ccc(/N=N/c2ccc(C(=O)N[C@@H](CCCNC(=N)N)C(=O)N[C@@H](CCCNC(=N)N)C(=O)N[C@@H](CCCNC(=N)N)C(=O)N[C@@H](CCCNC(=N)N)C(=O)N[C@@H](CCCNC(=N)N)C(=O)N[C@@H](CCCNC(=N)N)C(=O)N[C@@H](CCCCNC(=O)c3ccc4c(c3)C(=O)OC43c4ccc(O)cc4Oc4cc(O)ccc43)C(N)=O)cc2)cc1 [Dabcyl–Arg6–Lys(Cf)–NH2] (X1-RRRRRRK(5FAM)-NH2)
- Total (37 °C–4 °C) (pmoles) Endocyt. (CHO-K1 cells [1]; [peptide] 1 μM): 1.9 pmol
- 4 °C/37 °C (Fluoro) (CHO-K1 cells [1]; [peptide] 1 μM): 0.25
- Total 4 °C (pmoles) Transloc. (CHO-K1 cells [1]; [peptide] 1 μM): 0.6 ± 0.04 pmol
- Total 37 °C (pmoles) Endocyt. + Transloc. (CHO-K1 cells [1]; [peptide] 1 μM): 2.5 ± 0.2 pmol
- Total (37 °C–4 °C) (pmoles) Endocyt. (CHO-K1 cells [1]; [peptide] 2.5 μM): 22 pmol
- 4 °C/37 °C (Fluoro) (CHO-K1 cells [1]; [peptide] 2.5 μM): 0.08
- Total 4 °C (pmoles) Transloc. (CHO-K1 cells [1]; [peptide] 2.5 μM): 1.9 ± 0.3 pmol
- Total 37 °C (pmoles) Endocyt. + Transloc. (CHO-K1 cells [1]; [peptide] 2.5 μM): 24 ± 1.3 pmol
- Total (37 °C–4 °C) (pmoles) Endocyt. (CHO-K1 cells [1]; [peptide] 5 μM): 53 pmol
- 4 °C/37 °C (Fluoro) (CHO-K1 cells [1]; [peptide] 5 μM): 0.10
- Total 4 °C (pmoles) Transloc. (CHO-K1 cells [1]; [peptide] 5 μM): 6.1 ± 0.8 pmol
- Total 37 °C (pmoles) Endocyt. + Transloc. (CHO-K1 cells [1]; [peptide] 5 μM): 59 ± 2.5 pmol
- Total (37 °C–4 °C) (pmoles) Endocyt. (CHO-K1 cells [1]; [peptide] 10 μM): 131 pmol
- 4 °C/37 °C (Fluoro) (CHO-K1 cells [1]; [peptide] 10 μM): 0.12
- Total 4 °C (pmoles) Transloc. (CHO-K1 cells [1]; [peptide] 10 μM): 18 ± 2 pmol
- Total 37 °C (pmoles) Endocyt. + Transloc. (CHO-K1 cells [1]; [peptide] 10 μM): 149 ± 6 pmol
- Cytotoxic effect on CHO-K1 cells (CHO-K1 cells [2]): no cytotoxic effect
